Measured values from patent publication US5491135A (priority 1993, dated 1996).
Values joined by “and” are separate entries in the source; they are usually repeats but may differ in a detail not shown here. Identical values can stand only once. Like-named read-outs stand apart in the source and are kept apart here.

Legend:
[1] = system: flaviviruses; test: Antiviral test of 2-dGlc; format: cell-based; settings: alone
[2] = system: simian varicella virus; test: Simian varicella virus infection in African green monkeys; format: in vivo, African green monkey; settings: for Viremia, Mean PFU: mg/kg/d i.v.
Procedure: Fifteen African green monkeys were weighed and bled for clinical chemistry hematology baselines. […] Each of the 15 monkeys were infected with simian varicella virus by intratracheal inoculation of 3.7×10^4 plaque forming units (PFU) of simian varicella virus. […] Control monkeys, service as infection controls, received twice daily intravenous injections of phosphate buffered saline administered at 1.0 ml/kg of body weight. A second group of three monkeys received PALA at 50 mg/kg/day given by intravenous bolus injection into the saphenous vein. A third group was given a lower dose of PALA at 20 mg/kg/day administered in a similar manner. Acyclovir treatment was administered at a subeffective dose of 10 mg/kg/day also given as intravenous bolus injection into the saphenous vein. A fifth group of three monkeys received a combined treatment of PALA at 20 mg/kg/day and acyclovir at 10 mg/kg/day. The drugs were injected into opposite veins at each time of treatment.
Drug solutions were prepared daily prior to treatment. Treatment was begun 24 hours after virus inoculation. PALA was provided as a solution in vials containing 5 ml at 100 mg/ml. The contents of three vials were pooled and seven ml of the pooled drug diluted to 28 ml to give 25 mg/ml. Five ml of this solution was diluted to […] to give 10 mg/ml. Drug was administered twice daily resulting in total daily doses of 50 or 20 mg/kg/day.
Acyclovir received as a gift from Burroughs Wellcome was weighed out as a 200 mg quantity. This was diluted with 5 ml of PBS and pH adjusted to 11.0 with 1N NaOH to effect solution. This was subsequently diluted to 40 ml to give a solution of 5 mg/ml and sterilized by filtration. Again, 1 ml per kg of body weight was administered by intravenous injection twice daily resulting in a dose of 10 mg/kg/day.
The clinical course of simian varicella infection was followed by collection of 2 ml of blood in heparin on day 2, 5, 7, 9 and 11 post-inoculation. The lymphocytes in the 2 ml specimen were separated on ficol-hypaque gradients, washed twice in RPMI-1640 medium and suspended in 10 ml of this medium. The 10 ml volume was divided between two 25 cm^2 tissue culture flasks seeded 24 hours earlier with Vero cells. After 5-7 days incubation, the culture fluids were discarded from the flasks and the cell monolayer fixed with methanol and stained with methylene blue-basic fuchsin. When dried the number of plaques in each flask were counted and the mean number of plaques between the two paired flasks were determined and expressed as a quantitation of viremia per ml of blood.
Rash was evaluated daily using a subjective scoring of severity from ± to 4+. A ± score indicates less than 10 vesicles seen on the skin of the monkey while 4+ indicates numerous vesicles covering the majority of the body surface. General clinical condition was assessed daily and anorexia noted by counting the number of food biscuits consumed daily. Monkeys dying during the course of the experiment were necropsied and simian varicella was determined as the cause of death based on the typical pathology. Baseline hematology and clinical chemistry tests were performed at three days before virus inoculation and again on day 0, immediately before virus inoculation. Following inoculation of simian varicella virus blood was taken for hematology and clinical chemistry tests at 3, 7, 9 and 11 days.
At 14 and 21 days after virus inoculation, blood was taken and the serum separated for quantitation of antibody. Antibody titers were obtained in a serum neutralization test employing a plaque reduction assay. The antibody titer expressed is the dilution of serum resulting in an 80 percent reduction in the number of plaques from that number occurring in control cultures without added serum.

[3] = system: herpesvirus; settings: cited from earlier work
[4] = system: respiratory syncytial virus (RSV); test: RSV infection in cotton rats, lung titre; format: in vivo, cotton rat
From the text: 1. 50 to 100 g cotton rats of either sex inoculated i.n. with RS A2 (pool 8-28-92) on day 0.
2. On day +1 animals were given placebo or PALA as follows:
3. All animals killed on day +4 and their lungs tested for RSV levels.

[5] = system: vaccinia virus
[6] = PALA 50, rifampicin 10 or both, mg/kg/day i.v.
[7] = day 10, PALA 50, rifampicin 10 mg/kg/d or both

O=CC[C@@H](O)[C@H](O)[C@H](O)CO [2-dGlc, 2-deoxy-D-glucose]
effect against flaviviruses [1]: no effect

Nc1nc2c(ncn2COCCO)c(=O)[nH]1 [Acyclovir, reference compound]
effect on rash / viremia ([2]; PALA 20, Acyclovir 10 or both, mg/kg/day i.v.): no effect in moderating viremia | thrombocytopenia on day 11 ([2]; PALA 50 or Acyclovir 10 mg/kg/day): two monkeys | Viremia, Mean PFU ([2]; day 7, PALA 20, Acyclovir 10 or both): > 1000 PFU and 504 PFU | Viremia, Mean PFU ([2]; day 11, PALA 20, Acyclovir 10 or both): 0 PFU

O=C(O)CP(=O)(O)O [PAA, phosphonoacetic acid, reference compound]
antiherpesvirus activity [3]: selective antiherpesvirus agent

NC(=O)c1ncn([C@@H]2O[C@H](CO)[C@@H](O)[C@H]2O)n1 [RIBAVIRIN, reference compound]
RSV lung titre ([4]; ribavirin 40 mg/kg, alone or + PALA 3 mg/kg, individual animal): 3.4 LOG10 and 2.9 LOG10 and 3.5 LOG10 | RSV lung titre, mean (SD) ([4]; ribavirin 40 mg/kg/day, alone or + PALA 3): 3.3 (0.3) LOG10 /G Lung

CO[C@H]1/C=C/O[C@@]2(C)Oc3c(C)c(O)c4c(O)c(c(/C=N/N5CCN(C)CC5)c(O)c4c3C2=O)NC(=O)/C(C)=C\C=C\[C@H](C)[C@H](O)[C@@H](C)[C@@H](O)[C@@H](C)[C@H](OC(C)=O)[C@@H]1C [Rifampicin, reference compound]
lesion development [5, 6]: appreciable skin lesions | virus titers in skin [5, 6]: Higher titers | Weight ([5]; day 0, PALA 50, rifampicin 10 mg/kg/d or both): 5.2 kg and 2.6 kg and 4.2 kg | Vaccinia Lesion Score, group mean ([5]; day 3, PALA 50, rifampicin 10 mg/kg/d or both): 0.4 | Vaccinia Lesion Score, group mean ([5]; day 6, PALA 50, rifampicin 10 mg/kg/d or both): 1.2 | Vaccinia Lesion Score ([5]; day 6, PALA 50, rifampicin 10 mg/kg/d or both, per monkey): 1.6 and 0.7 and 1.4 | Vaccinia Lesion Score, group mean ([5]; day 7, PALA 50, rifampicin 10 mg/kg/d or both): 1.7 | Vaccinia Lesion Score, group mean ([5]; day 8, PALA 50, rifampicin 10 mg/kg/d or both): 1.3 | Vaccinia Lesion Score, group mean ([5]; day 9, PALA 50, rifampicin 10 mg/kg/d or both): 1.2 | Vaccinia Lesion Score, group mean [5, 7]: 1.6 | Weight [5, 7]: 4.6 kg and 2.4 kg and 3.8 kg | Vaccinia Lesion Score, group mean ([5]; day 13, PALA 50, rifampicin 10 mg/kg/d or both): 0.9 | Weight ([5]; day 14, PALA 50, rifampicin 10 mg/kg/d or both): 4.6 kg and 2.4 kg and 3.8 kg | Weight ([5]; day 21, PALA 50, rifampicin 10 mg/kg/d or both): 4.8 kg and 2.6 kg and 4.0 kg | signs of toxicity ([5]; except one monkey at PALA 125 mg/kg bolus): No appreciable signs of toxicity | Titer of vaccinia virus in skin biopsy ([5]; head prints day 6, PALA 50, rifampicin 10 mg/kg/d or both): 1.5 × 10^7 PFU/ml and 1.2 × 10^5 PFU/ml and 1.1 × 10^5 PFU/ml
